The text below walks through data of PubChem BioAssay (NCI).

SMILES strings stand for the structures.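 These data come from cells grown in 96-well plates and exposed to compound for 48 hours at five concentrations. The concentration for 50% growth inhibition is given as GI50. TGI is the concentration that stops growth completely.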

This assay concerns MDA-MB-468 breast. As to the kind of experiment: NCI-60 cell line screen, 48 h.
For the molecule `CCN(CC)CCNc1ccc(C)c2sc3cc(Cl)ccc3c(=O)c12`, the GI50 is 2070 nM and the TGI was 4210 nM.

In the case of `COc1ccc(/C=C(/C(=O)N2CCN(c3ccccc3)CC2)c2cc(OC)c(OC)c(OC)c2)cc1N`, the GI50 was 251 nM and the TGI was > 100000 nM.

Consider `Oc1ccc(CSc2nnc(-c3ccncc3)o2)c2cccnc12`, for which the GI50 is 2270 nM and the TGI was determined as 8640 nM.

As to `C[n+]1c(/C=C/c2c[nH]c3ccccc23)ccc2ccccc21`, the GI50 was 1800 nM and the TGI turned out to be 13000 nM.

`C=C(C)[C@@H]1CC[C@]2(COCCC#N)CC[C@]3(C)[C@H](CC[C@@H]4[C@@](C)(CCCNCCC#N)[C@H](C(=C)C)CC[C@]43C)[C@@H]12`: the GI50 is 17300 nM and the TGI was > 50000 nM.

For `CCOC(=O)c1ccccc1OC(=O)NNc1ccccc1`, the GI50 is 11100 nM and the TGI is > 100000 nM.

With `COc1cc([C@@H]2c3cc4c(c(O)c3C[C@H]3COC(=O)[C@@H]32)OCO4)cc(OC)c1OC`, the GI50 is 65.7 nM and the TGI worked out at 311 nM.

In the case of `CN1CCC(COc2cnc(-c3cccc(Cn4nc(-c5cccc(C#N)c5)ccc4=O)c3)nc2)CC1`, the GI50 was 1490 nM and the TGI amounted to 3230 nM.

Take `NCCCNc1nc2ccccc2c2c(=O)c3cc(F)cc(F)c3sc12`: the GI50 was 1710 nM and the TGI was 3810 nM.

As for `Cc1ccc(NC(=O)c2ccc(CN3CCN(C)CC3)cc2)cc1Nc1nccc(-c2cccnc2)n1`, the GI50 was 13900 nM and the TGI was determined as 36200 nM.

For `Cn1cc(C2=C(c3ccccc3[N+](=O)[O-])C(=O)NC2=O)c2ccccc21`, the GI50 is 4080 nM and the TGI came out at 10500 nM.

Turning to `COc1ccc(C(=O)Nc2ncc(Cc3cccc(Cl)c3)s2)cc1OC`, the GI50 was 307 nM and the TGI was > 95900 nM.

On to `CC[C@@H]1[C@@H](C)O[C@@](O)([C@@H](C)[C@H](O)[C@H](C)[C@H]2OC(=O)/C=C/C=C/[C@H](C)[C@@H]([C@@H](C)[C@@H](O)[C@H](C)[C@@]3(O)C[C@@H](O[C@H]4C[C@@H](O)[C@H](O)C(C)O4)[C@H](CC)[C@@H](C)O3)OC(=O)/C=C/C=C/[C@@H]2C)C[C@H]1O[C@@H]1C[C@@H](O)[C@H](O)C(C)O1` (some centres undefined), for which the GI50 is 68.8 nM and the TGI is 204 nM.

Turning to `Cc1ccc(Cl)cc1Nc1nc(C(F)(F)F)ccc1C(=O)N/N=C/c1cccnc1`, the GI50 was 1410 nM and the TGI amounted to 10200 nM.

As for `Nc1c(C(=O)c2ccc(-c3cccnc3)cc2)cnn1-c1ccc(F)cc1`, the GI50 is > 25000 nM and the TGI was > 25000 nM.

As for `CC[C@H](NC(=O)[C@H]1CCCCN1C)C(=O)N(C)[C@H](C[C@@H](OC(C)=O)c1nc(C(=O)N[C@@H](Cc2ccccc2)C[C@H](C)C(=O)O)cs1)C(C)C`, the GI50 is 1.99 nM and the TGI is > 14300 nM.

`Cc1cc(Nc2ccc(OCc3ccccc3)cc2)nc2cc(O)ccc12`: the GI50 is 2590 nM and the TGI came out at 8740 nM.

Consider `CC(C)(C)N1CCC1CN` (centres undefined), for which the GI50 was > 100000 nM and the TGI is > 100000 nM.

In the case of `NS(=O)(=O)OCC1OC(n2cnc3cncnc32)C(O)C1O` (centres undefined), the GI50 is 18.9 nM and the TGI was determined as 48.5 nM.

For `COC1=CC(c2ccc[nH]2)=N/C1=C\c1[nH]c(C)c(CC(=O)OCc2ccccc2)c1CCC(=O)OCc1ccccc1`, the GI50 is 510 nM and the TGI turned out to be 2960 nM.

For the molecule `O=C(COc1ccc(/C=C2\COc3ccccc3C2=O)cc1)Nc1nccs1`, the GI50 is 2040 nM and the TGI was 4730 nM.

Regarding `Nc1ccccc1NC(=O)c1ccc(CNc2nccc(-c3cccnc3)n2)cc1`, the GI50 is 496 nM and the TGI came to 2250 nM.
